Reference: patent US20260226493A1, “HERBICIDE RESISTANT PLANTS” (SYNGENTA CROP PROTECTION AG, priority 2023, published 2026)

What was measured:
Format in all cases: biochemical
Ostreococcus tauri BioDA = assay: BioDA enzyme activity with DMSO or herbicide in vitro; conditions: Ostreococcus tauri BioDAΔMTP
From the text: (§1) A pet-24 plasmid containing a DNA sequence encoding each identified variant mutant of BIO3-BIO1 derived from Arabidopsis thaliana from example 5 above, as shown in Table 13 below and as shown in full in SEQ ID NOs: 15 to 155, codon-optimised for expression in E. coli, with an N-terminal 6×His-tag and thrombin cleavage site and under control of a T7 promoter, and was synthesised by Twist Bioscience, in a similar manner to SEQ ID NO:311. These plasmids were then expressed in E. coli BL21 (DE3) bioA with 50 μg/mL kanamycin and 25 μg/mL chloramphenicol selection. Overnight cultures grown at 37° C. were used to inoculate 8×500 mL AIM in shake flasks at a ratio of 1:100. Cultures were grown at 37° C., 200 rpm for 3.5 hours and then overnight at 20° C. Cells were harvested by centrifugation for 30 minutes at 10 000 g. Cells were stored at −80° C. until extraction. 30 g of cell pellet from was thawed in 120 mL of IMAC buffer A (20 mM HEPES pH7.5, 25 mM imidazole, 500 mM sodium chloride, 0.15 mM pyridoxal phosphate, 0.5 mM TCEP, 1× complete Protease Inhibitor Tablet (Roche)). The resuspension was passed through a cell disrupter at 18 000 PSI and centrifuged at 50 000 g for 25 minutes at 4° C. The His-tagged BIO3-BIO1 protein was purified from the extract supernatant on an AKTA avant chromatography system (Cytiva) using a HisTrap FF column and eluted in IMAC buffer B ((20 mM HEPES pH7.5, 500 mM imidazole, 500 mM sodium chloride, 0.15 mM pyridoxal phosphate, 0.5 mM TCEP) followed by SEC using a HiLoad 26/60 Superdex200 column in SEC buffer (25 mM HEPES pH7.5, 150 mM sodium chloride, 0.15 mM pyridoxal phosphate, 0.5 mM TCEP). Protein concentration was measured and calculated using the absorbance at 280 nm. Extracts were diluted 1 in 4 and 10 uL was analysed by SDS PAGE.
(§2) To measure BIO3-BIO1 mutant enzyme activity in the presence of herbicide, herbicides were incubated with 20 μL of enzyme mix (100 mM EPPS pH 8.6, 0.1 mM pyridoxal phosphate, 0.1 mg/mL BSA, 50 nM BIO3-BIO1 enzyme) for 10 minutes at 20° C. in a well of a 96-well half-area black plate, followed by the addition of 20 μL of substrate mix (final concentration of 100 mM EPPS pH 8.6, 0.1 mM pyridoxal phosphate, 0.1 mg/mL BSA, 100 μM spermidine, 20 μM KAPA, 100 mM NaCO3) and further incubation for 75 minutes at 20° C. The reaction was terminated by the addition of 50 μL of derivatisation mix (final concentration of 250 mM borate NaOH pH 9.4, 3.6 mM o-phthalaldehyde, 7 mM β-mercaptoethanol, 17% (v/v) ethanol, 3.6% (v/v) methanol). The fluorescent product produced by the reaction of DAPA with o-phthalaldehyde and 7 mM β-mercaptoethanol was measured at 470 nm after excitation at 410 nm. The percentage inhibition was calculated as the activity in the presence of one of three concentrations of each herbicide compound A to M (note that the compounds labelled as A to M are identified hereinabove in the relevant section of the description) as a percentage of the activity in DMSO (Table 12 and 13). The percentage activity versus WT was also calculated and is shown in Table 13 and 14 (NT indicates mutation not tested in table 13, note that these mutations are tested at different compound concentrations for compounds L, M and C, and the results are shown in table 14).
(§3) The activity of various wild-type BioDA and variant enzymes was also tested when treated with DMSO or herbicide in vitro.
(§4) Protein of Schizosaccharomyces japonicus BioDA (SEQ ID NO:13), Nannochloropsis gaditana BioDA (SEQ ID NO:3), Selaginella moellendorffii BioDA (SEQ ID NO:319), Quercus robur BioDA (SEQ ID NOA11), Ostreococcus tauri BioDA (SEQ ID NO:9), and the variants of Ostreococcus tauri BioDA A374D, F332A and P407A (SEQ ID Nos:321-323) was prepared using the method in Example 6. BioDA enzyme activity in the presence of herbicide or DMSO in vitro for each of the proteins was assayed according to the enzyme assay method above. The results are shown in Table 26 provided below in the “TABLES” section.

[1] = test system: Nannochloropsis gaditana BioDA; assay: as above
From the text: as §1, §2, §3, §4

[2] = test system: Selaginella moellendorffii BioDA; assay: as above; conditions: Selaginella moellendorcffii BioDAΔMTP
From the text: as §1, §2, §3, §4

[3] = test system: Schizosaccharomyces japonicus BioDA; assay: as above
From the text: as §1, §2, §3, §4

Quercus robur BioDA = assay: as above; conditions: Quercus robur BioDAΔMTP
From the text: as §1, §2, §3, §4

[4] = test system: Tenacibaculum adriaticum BioA; assay: BioA enzyme activity with DMSO or herbicide in vitro; conditions: spermidine in substrate mix
From the text: as §1, §2
(§5) Protein of Escherichia coli BioA (SEQ ID NO:159), Pantoea ananatis BioA (SEQ ID NO:167), Streptomyces viridochromogenes BioA (SEQ ID NO:170), Cryptosporidium andersoni BioA (SEQ ID NO:160), Stenotrophomonas maltophilia BioA (SEQ ID NO:171), Chroococcidiopsis BioA (SEQ ID NO:184), Pedobacter hartonius BioA (SEQ ID NO:181), Chitinophaga filiformis BioA (SEQ ID NO:180), Tenacibaculum adriaticum BioA (SEQ ID NO:185) and Bacillus subtilis BioA (SEQ ID NO:166) was prepared using the method in Example 6. BioA enzyme activity in the presence of herbicide or DMSO in vitro for each of the proteins was assayed according to the enzyme assay method in Example 6, except in some reactions spermidine was replaced with 2 mM S-Adenosyl methionine.

[5] = test system: Pedobacter hartonius BioA; assay: as above; conditions: spermidine in substrate mix
From the text: as §1, §2, §5

Bacillus subtilis BioA = assay: as above; conditions: spermidine in substrate mix
From the text: as §1, §2, §5

[6] = test system: Stenotrophomonas maltophilia BioA; assay: as above; conditions: spermidine in substrate mix
From the text: as §1, §2, §5

[7] = test system: Streptomyces viridochromogenes BioA; assay: as above; conditions: SAM in substrate mix
From the text: as §1, §2, §5

## CCn1c(-c2ccc(Cl)c(Cl)c2)c(C(=O)O)c(=O)c2cc(F)ccc21 [Compound M, 2-(3,4-dichlorophenyl)-1-ethyl-6-fluoro-4-oxo-quinoline-3-carboxylic acid]
Ostreococcus tauri BioDA; 0.5 μM
  % Inhibition relative to DMSO treatment: 0%
Ostreococcus tauri BioDA; 31 μM
  % Inhibition relative to DMSO treatment: 45%
Ostreococcus tauri BioDA; 500 μM
  % Inhibition relative to DMSO treatment: 92%
[1]; 0.5 μM
  % Inhibition relative to DMSO treatment: 3%
[2]; 0.5 μM
  % Inhibition relative to DMSO treatment: 0%
[3]; 0.5 μM
  % Inhibition relative to DMSO treatment: 15%
[3]; 31 μM
  % Inhibition relative to DMSO treatment: 95%
[3]; 500 μM
  % Inhibition relative to DMSO treatment: 99%
Quercus robur BioDA; 0.5 μM
  % Inhibition relative to DMSO treatment: 22%
[4]; 0.5 μM
  % Inhibition relative to DMSO treatment: 13%
[5]; 0.5 μM
  % Inhibition relative to DMSO treatment: 0%
Bacillus subtilis BioA; 0.5 μM
  % Inhibition relative to DMSO treatment: 4%
[6]; 0.5 μM
  % Inhibition relative to DMSO treatment: 1%
[7]; 0.5 μM
  % Inhibition relative to DMSO treatment: 0%

## CCn1c(C)c(-c2ccc(F)cc2F)c(=O)c(C(=O)O)c1-c1ccc(Cl)c(Cl)c1 [Compound C, 2-(3,4-dichlorophenyl)-5-(2,4-difluorophenyl)-1-ethyl-6-methyl-4-oxo-pyridine-3-carboxylic acid]
Ostreococcus tauri BioDA; 0.5 μM
  % Inhibition relative to DMSO treatment: 0%
[1]; 0.5 μM
  % Inhibition relative to DMSO treatment: 8%
[2]; 0.5 μM
  % Inhibition relative to DMSO treatment: 9%
[3]; 0.5 μM
  % Inhibition relative to DMSO treatment: 17%
Quercus robur BioDA; 0.5 μM
  % Inhibition relative to DMSO treatment: 32%
[4]; 0.5 μM
  % Inhibition relative to DMSO treatment: 19%
[5]; 0.5 μM
  % Inhibition relative to DMSO treatment: 0%
Bacillus subtilis BioA; 0.5 μM
  % Inhibition relative to DMSO treatment: 0%
[6]; 0.5 μM
  % Inhibition relative to DMSO treatment: 0%
[7]; 0.5 μM
  % Inhibition relative to DMSO treatment: 0%

## CCOC(=O)c1nn(-c2ccc3c(c2)OC(F)(F)C(F)(F)O3)c2cccc(C(C)=O)c2c1=O [Compound A, ethyl 5-acetyl-4-oxo-1-(2,2,3,3-tetrafluoro-1,4-benzodioxin-6-yl)cinnoline-3-carboxylate]
Ostreococcus tauri BioDA; 25 μM
  % Inhibition relative to DMSO treatment: 0%
[1]; 25 μM
  % Inhibition relative to DMSO treatment: 5%
[2]; 25 μM
  % Inhibition relative to DMSO treatment: 25%
[3]; 25 μM
  % Inhibition relative to DMSO treatment: 2%
Quercus robur BioDA; 25 μM
  % Inhibition relative to DMSO treatment: 72%
[4]; 25 μM
  % Inhibition relative to DMSO treatment: 14%
[5]; 25 μM
  % Inhibition relative to DMSO treatment: 6%
Bacillus subtilis BioA; 25 μM
  % Inhibition relative to DMSO treatment: 0%
[6]; 25 μM
  % Inhibition relative to DMSO treatment: 0%
[7]; 25 μM
  % Inhibition relative to DMSO treatment: 0%
